The subject of test [1] is IFN-γ. As to the kind of experiment: Serum IFN-γ in OVA/OVA323-339 stimulated DO11.10 mice (ELISA). Type of test: in vivo, mouse. Particulars: for IFN-γ level in pg/ml serum after day 0: 3 hours after first i.p. injection; for IFN-γ level in pg/ml serum after day 14: 3 hours after second i.p. injection. The protocol: Groups of six, 8-10 weeks old, male or female DO11.10 mice weighing between 20-22 g are obtained as described in Murphy K. M. et al. 1990, Science 250:1720-1722. The animals are maintained in Microvent positive air supply cages (22±1° C., 55±5% relative humidity, 50-70 changes of fresh air/hour and 12 hours day and night cycle) with sawdust bedding. Standard laboratory mouse chow (SNIFF, Soest, Germany) and drinking water is given ad libidum. The animals are used for the study after an adaptation period of 10-14 days and grouped (6 per group) in type II Macrolon cages one day before the experiment.
Groups of six DO11.10 mice are i.p. injected with 10 μg of ovalbumin (OVA, Sigma, St. Louis, USA) absorbed to 2 mg of Al(OH)3 (Alu Gel S; 2% Al(OH)3, Serva, Heidelberg, FRG) and diluted with saline to a volume of 0.2 ml or various amounts (1, 3, 10, 30, or 90 μg per mouse) of alum-precipitated OVA323-339 peptide (98% purity, piChem R&D, Graz Austria) in 0.2 ml on days 0 and 14. Before and at different time points on days 0 and 14 after the OVA or OVA323-339 peptide administration about 200 μl of blood are collected by puncture of the retro-orbital plexus under ether anesthesia.
The sera are collected and stored frozen at −20° C. until analyzed. […]
Murine IL-2, IFN-γ and IL-4 are analyzed by immunoassays (Quantikine R&D Systems, Minneapolis, Minn., USA). Results are expressed as pg per ml serum expressed as mean±SEM pg of the cytokine indicated per ml serum. Test and control groups are evaluated by Dunn test by Kruskall-Wallis One Way Anova using the SigmaStat® program. […]
Mice of the control group are injected with alum. Blood is collected before and at 2, 4, and 6 hours after the first peptide injection. INF-γ is determined in the sera by an ELISA. Results are expressed as mean pg per ml serum±SEM. […]
Background: An ELISA detects its analyte on a solid surface through an enzyme-linked reagent.

A further test concerns CD8+ T cells. Nature of the test: Frequency of CD8+ T cells in blood and spleen of OT-1 mice (FACS). The test is classed as in vivo, mouse. The procedure:
(§1) OT-1 mice are obtained as described in Hogquist et al., 1994, Cell 76(1)17-27. The animals are maintained in Microvent positive air supply cages (22±1° C., 55±5% relative humidity, 50-70 changes of fresh air/hour and 12 hours day and night cycle) with sawdust bedding. Standard laboratory mouse chow (SNIFF, Soest, Germany) and drinking water is given ad libitum. Groups of two to four, 8-10 weeks old, male or female OT-1 mice weighing between 20-25 g are used for the experiments described. The animals are grouped (4 per group) in type II Macrolon cages one day before the experiment.
Doses of 3, 0.3 and 0.1 mg/kg b.w. are administered orally by gavage 2 hours before antigen challenge. The compound is diluted with solvent (Neoral Placebo) and given in a volume of 0.2 ml. Animals in the control group receive the solvent only. Ovalbumin-derived peptide (OVA257-264, […], >80% purity, piChemie R&D, Graz, Austria) or whole OVA (Sigma) are used as antigens. Both are diluted in PBS and administerd i.p. in a final volume of 0.2 ml. At various time points after OVA257-264 peptide injection about 200 μl blood is withdrawn from the retro-orbital plexus under ether anesthesia. In order to avoid coagulation, blood is collected in EDTA-containing buffer. Mice are killed by cervical dislocation and the spleen is excised. Single cell suspension are prepared in PBS by gently pressing the spleen through a 100 μm cell strainer. Finally, blood and spleen cells are washed with FACS buffer (PBS, 1 g/l EDTA, 1 g/l NaN3, 10% FCS; pH 7.1) and taken up in the same buffer for FACS analysis.
(§2) Single cell suspensions of spleen or blood containing approximately 1×10^6 cells in 100 μl of FACS buffer are used for staining. […] Lymphocytes are gated in the FSC/SSC dot blot according to size and granularity and further analyzed for expression of CD8, TCR Vβ5 expression and activation markers. Data are presented as original dot blots or are calculated from dot blots as percentage of cells positively stained for TCR or activation markers within the CD8^+ population.

The test system of another test is CD25 on CD8+ T cells. Nature of the test: CD25 expression on CD8+ T cells of peptide-stimulated OT-1 mice (FACS). Type of test: in vivo, mouse. Particulars: 100 μg OVA257-264, after 7 hours. The procedure:
The animals are maintained in Microvent positive air supply cages (22±1° C., 55±5% relative humidity, 50-70 changes of fresh air/hour and 12 hours day and night cycle) with sawdust bedding.

Test [2] has as its system IFN-γ. Nature of the test: Serum IFN-γ in OVA257-264 stimulated OT-1 mice (sandwich ELISA). Type of test: in vivo, mouse. The procedure:
as §1
(§3) Cells are stimulated as described above and supernatant is harvested after 48 hours. The quantity of cytokines released by T cells into the culture medium after antigen stimulation is assayed by conventional sandwich ELISA. […] Specifically bound cytokines are quantified using biotinylated secondary antibodies JES6-5H4 (anti-IL-2), BVD6-24G2 (anti-IL-4), TRFK4 (anti-IL-5), SXC-1 (anti-IL-10) and XMG1.2 (anti-IFN-γ) followed by extravidin peroxidase and TMB substrate (both from Sigma). Absorption is measured at 450 and 690 nm on a Spectramax 340PC reader (Molecular Devices, Sunnyvale, Calif.). All cytokines are quantified with standard curves obtained with known amounts of recombinant mouse cytokines using SoftMax 3 software. […]

Another test relates to CD69 on CD8+ T cells. Nature of the test: CD69 expression on CD8+ T cells of antigen-stimulated OT-1 mice (FACS). Type of test: in vivo, mouse. The protocol:
as §1
Doses of 3, 0.3 and 0.1 mg/kg b.w. are administered orally by gavage 2 hours before antigen challenge. […]
as §2
Data calculated from FACS analysis or serum cytokine determination are given as individual values for each animal. Data are analysed for normal distribution and then the ANOVA test for multiple comparison is applied using SigmaStat software. […]

A further test relates to IL-2. Nature of the test: Serum IL-2 in OVA257-264 stimulated OT-1 mice (sandwich ELISA). Type of test: in vivo, mouse. The protocol:
as §1, §3

Test [3] deals with Splenocytes of OT-1 mice. As to the kind of experiment: Cytokine production assay, OT-1 splenocytes. Type of test: cell-based, mouse. The conditions noted are these: high amounts of OVA protein. The procedure:
Cells are stimulated as described above and supernatant is harvested after 48 hours. The quantity of cytokines released by T cells into the culture medium after antigen stimulation is assayed by conventional sandwich ELISA. Microtiter plates (Nunc-Immunoplate™) are coated with the cytokine-specific capture antibodies JES6-1A12 (anti-IL-2), 11B11 (anti-IL-4), TRFK5 (anti-IL-5), JES5-2A5 (anti-IL-10) or R4-6A2 (anti-IFN-γ) at 4° overnight. Supernatants are incubated on the coated plates for 2 hours. Specifically bound cytokines are quantified using biotinylated secondary antibodies JES6-5H4 (anti-IL-2), BVD6-24G2 (anti-IL-4), TRFK4 (anti-IL-5), SXC-1 (anti-IL-10) and XMG1.2 (anti-IFN-γ) followed by extravidin peroxidase and TMB substrate (both from Sigma). Absorption is measured at 450 and 690 nm on a Spectramax 340PC reader (Molecular Devices, Sunnyvale, Calif.). All cytokines are quantified with standard curves obtained with known amounts of recombinant mouse cytokines using SoftMax 3 software. All mAbs and recombinant mouse cytokine standards are purchased from BD PharMingen, Heidelberg, Germany.

In test [4] the test system is Splenocytes of OT-1 mice. Nature of the test: T cell proliferation assay, OT-1 splenocytes. The test is classed as cell-based, mouse. The conditions noted are these: high amounts of OVA protein. The procedure:
Splenocytes (4×10^5 cells/well) of OT-1 mice are stimulated in 200 μl final volume in 96-well flat bottomed plates with titrated amounts of OVA or OVA257-264 peptide at 37°. As medium RPMI 1640 supplemented with 10% FCS, 2.0 g/l NaHCO3, 2 mM L-glutamin, 100 IU/ml penicillin, 100 μg/ml streptomycin and 5×10^−5 M β-mercaptoethanol (Sigma, Vienna, Austria) is used. After 48 hours, cells are pulsed with 0.5 μCi ^3H-thymidine for 8 hours and the incorporated radioactivity is measured on a liquid scintillation β-counter (Trilux, 1450 Microbeta, Wallac, Turku, Finland).

The mark [5] stands for this setting: peptide-induced activation in OT-1 mice.

Bounds are passed on as bounds.

With “p/p: 10 μg OVA323-339 peptide/10 μg OVA323-339 peptide i.p. on days 0 and 14 (KISQAVHAAHAEINEAG; UniProt P01012 323-339, looked up, fragment)”, in the test on IFN-γ [1], the “IFN-γ level in pg/ml serum after day 0” value turned out to be 483.215 ± 134.641 pg/mL and the “IFN-γ level in pg/ml serum after day 14” value was 554.136 ± 110.652 pg/mL.
As for “OVA257-264: peptide derived from chicken ovalbumin containing amino acids from position 257 to 264”, the “change of CD8+ T cells in the spleen” value in the test with CD8+ T cells (100 μg OVA257-264 i.p.) is on record as “no significant decrease”. Moreover, in the test with CD8+ T cells (100 μg OVA257-264 i.p., within 3 hours, from around 30%), the “frequency of CD8+ expressing cells among the lymphocyte population in the blood” value is “less than 2.5%”. In the test on CD25 on CD8+ T cells, the “maximal up-regulation of CD25” value is given as “ca. 40 fold increase”. In addition, the “time of early peak of serum IFN-γ” value with IFN-γ [2] (setting [5]) worked out at 4 h. Further, the “minimal amount required to induce significant serum quantities of IFN-γ” value in the test with IFN-γ [2] (per animal, i.p., 4 hours) worked out at 30 µg. For the same molecule, the “maximal up-regulation of CD69” value in the test with CD69 on CD8+ T cells (100 μg OVA257-264, after 3 hours) was “ca. 155 fold increase”. Also, the “time of early peak of serum IL-2” value in the test on IL-2 (setting [5]) came to 4 h. Moreover, in the test on IL-2 (per animal, i.p., 4 hours), the “minimal amount required to induce significant serum quantities of IL-2” value is 30 µg.

B1: OVA: chicken ovalbumin (protein, UniProt P01012 2-386, looked up)
Ovalbumin: GSIGAASMEFCFDVFKELKVHHANENIFYCPIAIMSALAMVYLGAKDSTRTQINKVVRFDKLPGFGDSIEAQCGTSVNVHSSLRDILNQITKPNDVYSFSLASRLYAEERYPILPEYLQCVKELYRGGLEPINFQTAADQARELINSWVESQTNGIIRNVLQPSSVDSQTAMVLVNAIVFKGLWEKAFKDEDTQAMPFRVTEQESKPVQMMYQIGLFRVASMASEKMKILELPFASGTMSMLVLLPDEVSGLEQLESIINFEKLTEWTSSNVMEERKIKVYLPRMKMEEKYNLTSVLMAMGITDVFSSSANLSGISSAESLKISQAVHAAHAEINEAGREVVGSAEAGVDAASVSEEFRADHPFLFCIKHIATNAVLFFGRCVSP
As for B1, the “frequency of CD8+ T cells in both spleen and blood” value in the test on CD8+ T cells (1 mg OVA i.p., over 48 hours) is listed as “declines marginally”. Also, the “cytokine release of OT-1 splenocytes in vitro” value with Splenocytes of OT-1 mice [3] was “cytokine release”. Further, in the test with CD69 on CD8+ T cells (1 mg OVA i.p., late (7-24 hours)), the “increase of CD69 expression in the spleen” value is at most 2.5 fold. The “proliferation of OT-1 splenocytes in vitro” value with Splenocytes of OT-1 mice [4] is on record as “induce proliferation”. The “serum INF-γ levels after challenge with OVA-protein” value in the test on IFN-γ [1] (given amount (10 μg) of OVA-protein) is given as “under the detection limit”. In addition, the “INF-γ levels after second OVA exposure versus before” value with IFN-γ [1] (primary OVA, second OVA exposure 2 weeks later) was “fail to increase”. In addition, the “serum INF-γ levels versus alum alone” value in the test with IFN-γ [1] (primary sensitization with 10 μg of OVA) is “does not change”.

B2: o/o: 10 μg OVA/10 μg OVA i.p. on days 0 and 14 (protein, UniProt P01012 2-386, looked up)
Ovalbumin: GSIGAASMEFCFDVFKELKVHHANENIFYCPIAIMSALAMVYLGAKDSTRTQINKVVRFDKLPGFGDSIEAQCGTSVNVHSSLRDILNQITKPNDVYSFSLASRLYAEERYPILPEYLQCVKELYRGGLEPINFQTAADQARELINSWVESQTNGIIRNVLQPSSVDSQTAMVLVNAIVFKGLWEKAFKDEDTQAMPFRVTEQESKPVQMMYQIGLFRVASMASEKMKILELPFASGTMSMLVLLPDEVSGLEQLESIINFEKLTEWTSSNVMEERKIKVYLPRMKMEEKYNLTSVLMAMGITDVFSSSANLSGISSAESLKISQAVHAAHAEINEAGREVVGSAEAGVDAASVSEEFRADHPFLFCIKHIATNAVLFFGRCVSP
On to B2, for which, in the test with IFN-γ [1], the “IFN-γ level in pg/ml serum after day 0” value was 3.788 ± 1.495 pg/mL and the “IFN-γ level in pg/ml serum after day 14” value stood at 6.796 ± 6.189 pg/mL.

These data come from patent US20060095978A1, “Screening assay” (priority 2002, published 2006).
